The structures appear in SMILES notation. The source made the active and inactive calls. Rule as the data show it, for most assays here: actives have a measured Kd and inactives only a lower limit.

By Kd is commonly meant the constant that tells how readily two partners part at equilibrium.

The target in assay [1] is Calcium/calmodulin-dependent protein kinase type II subunit delta (Homo sapiens, UniProt Q13557).
Assay [2] deals with T1, Exosome RNA helicase MTR4 (Homo sapiens, UniProt P42285).
T1 sequence (P42285 whole entry): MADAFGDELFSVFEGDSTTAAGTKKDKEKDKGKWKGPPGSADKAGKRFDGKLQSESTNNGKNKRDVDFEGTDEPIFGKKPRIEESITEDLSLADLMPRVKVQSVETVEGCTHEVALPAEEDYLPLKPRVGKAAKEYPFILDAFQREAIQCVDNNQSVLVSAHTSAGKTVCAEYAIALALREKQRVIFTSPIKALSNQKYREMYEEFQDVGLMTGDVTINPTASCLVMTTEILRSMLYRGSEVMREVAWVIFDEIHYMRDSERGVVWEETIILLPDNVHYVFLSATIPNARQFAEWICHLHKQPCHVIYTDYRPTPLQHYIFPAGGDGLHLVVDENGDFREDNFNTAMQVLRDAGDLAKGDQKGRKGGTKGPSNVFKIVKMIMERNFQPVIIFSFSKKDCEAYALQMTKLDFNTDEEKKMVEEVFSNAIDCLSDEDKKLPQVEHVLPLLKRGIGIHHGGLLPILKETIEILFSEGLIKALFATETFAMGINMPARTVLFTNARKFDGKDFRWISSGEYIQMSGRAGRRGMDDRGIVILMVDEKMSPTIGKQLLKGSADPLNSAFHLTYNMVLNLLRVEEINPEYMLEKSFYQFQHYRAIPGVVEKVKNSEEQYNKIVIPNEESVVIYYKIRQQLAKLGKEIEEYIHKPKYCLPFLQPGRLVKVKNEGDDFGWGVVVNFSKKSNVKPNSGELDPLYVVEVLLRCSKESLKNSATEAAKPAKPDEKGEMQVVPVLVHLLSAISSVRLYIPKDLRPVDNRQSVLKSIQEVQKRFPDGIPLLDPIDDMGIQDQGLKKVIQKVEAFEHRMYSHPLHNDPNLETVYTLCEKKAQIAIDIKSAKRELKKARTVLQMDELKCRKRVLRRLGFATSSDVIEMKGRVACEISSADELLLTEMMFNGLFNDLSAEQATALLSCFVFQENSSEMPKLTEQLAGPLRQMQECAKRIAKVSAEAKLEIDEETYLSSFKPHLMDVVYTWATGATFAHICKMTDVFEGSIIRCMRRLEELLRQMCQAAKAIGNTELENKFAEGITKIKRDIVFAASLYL

The target of assay [3] is RAC-gamma serine/threonine-protein kinase (Homo sapiens, UniProt Q9Y243).
For assay [4], the target named is RAC-alpha serine/threonine-protein kinase (Homo sapiens, UniProt P31749).
In assay [5] the target is Tyrosine-protein kinase ABL1 (Homo sapiens, UniProt P00519).
Chain of Tyrosine-protein kinase ABL1 (P00519 whole entry): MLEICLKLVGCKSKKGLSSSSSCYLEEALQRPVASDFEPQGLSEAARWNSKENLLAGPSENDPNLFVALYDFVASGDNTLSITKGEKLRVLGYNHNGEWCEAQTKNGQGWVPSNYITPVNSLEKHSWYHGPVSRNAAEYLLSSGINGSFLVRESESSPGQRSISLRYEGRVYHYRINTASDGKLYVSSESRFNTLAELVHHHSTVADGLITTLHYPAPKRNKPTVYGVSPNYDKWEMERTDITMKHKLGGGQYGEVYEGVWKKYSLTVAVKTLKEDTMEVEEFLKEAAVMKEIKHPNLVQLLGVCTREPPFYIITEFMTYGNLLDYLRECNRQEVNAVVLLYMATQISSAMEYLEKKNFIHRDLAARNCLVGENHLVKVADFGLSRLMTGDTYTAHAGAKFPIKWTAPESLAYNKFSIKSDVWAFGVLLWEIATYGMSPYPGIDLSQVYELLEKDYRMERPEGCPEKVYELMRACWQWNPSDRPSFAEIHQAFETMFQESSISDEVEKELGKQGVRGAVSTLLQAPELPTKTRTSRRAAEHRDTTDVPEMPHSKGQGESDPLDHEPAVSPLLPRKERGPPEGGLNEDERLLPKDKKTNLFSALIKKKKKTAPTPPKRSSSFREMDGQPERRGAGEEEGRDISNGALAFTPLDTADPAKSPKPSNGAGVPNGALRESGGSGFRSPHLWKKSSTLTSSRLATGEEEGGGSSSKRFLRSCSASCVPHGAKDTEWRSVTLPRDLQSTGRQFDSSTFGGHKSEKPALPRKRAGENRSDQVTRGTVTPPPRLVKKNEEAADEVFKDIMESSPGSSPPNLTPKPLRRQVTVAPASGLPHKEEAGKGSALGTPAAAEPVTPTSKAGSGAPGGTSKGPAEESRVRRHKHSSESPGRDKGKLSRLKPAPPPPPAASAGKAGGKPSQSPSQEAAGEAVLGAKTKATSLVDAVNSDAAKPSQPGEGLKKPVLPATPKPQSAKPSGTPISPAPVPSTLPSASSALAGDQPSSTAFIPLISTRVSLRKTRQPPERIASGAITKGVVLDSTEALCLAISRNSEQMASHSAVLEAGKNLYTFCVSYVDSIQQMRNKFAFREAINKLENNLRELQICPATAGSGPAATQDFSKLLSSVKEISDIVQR
In assay [6] the target is STE20-like serine/threonine-protein kinase (Homo sapiens, UniProt Q9H2G2).
Chain of STE20-like serine/threonine-protein kinase (Q9H2G2 whole entry): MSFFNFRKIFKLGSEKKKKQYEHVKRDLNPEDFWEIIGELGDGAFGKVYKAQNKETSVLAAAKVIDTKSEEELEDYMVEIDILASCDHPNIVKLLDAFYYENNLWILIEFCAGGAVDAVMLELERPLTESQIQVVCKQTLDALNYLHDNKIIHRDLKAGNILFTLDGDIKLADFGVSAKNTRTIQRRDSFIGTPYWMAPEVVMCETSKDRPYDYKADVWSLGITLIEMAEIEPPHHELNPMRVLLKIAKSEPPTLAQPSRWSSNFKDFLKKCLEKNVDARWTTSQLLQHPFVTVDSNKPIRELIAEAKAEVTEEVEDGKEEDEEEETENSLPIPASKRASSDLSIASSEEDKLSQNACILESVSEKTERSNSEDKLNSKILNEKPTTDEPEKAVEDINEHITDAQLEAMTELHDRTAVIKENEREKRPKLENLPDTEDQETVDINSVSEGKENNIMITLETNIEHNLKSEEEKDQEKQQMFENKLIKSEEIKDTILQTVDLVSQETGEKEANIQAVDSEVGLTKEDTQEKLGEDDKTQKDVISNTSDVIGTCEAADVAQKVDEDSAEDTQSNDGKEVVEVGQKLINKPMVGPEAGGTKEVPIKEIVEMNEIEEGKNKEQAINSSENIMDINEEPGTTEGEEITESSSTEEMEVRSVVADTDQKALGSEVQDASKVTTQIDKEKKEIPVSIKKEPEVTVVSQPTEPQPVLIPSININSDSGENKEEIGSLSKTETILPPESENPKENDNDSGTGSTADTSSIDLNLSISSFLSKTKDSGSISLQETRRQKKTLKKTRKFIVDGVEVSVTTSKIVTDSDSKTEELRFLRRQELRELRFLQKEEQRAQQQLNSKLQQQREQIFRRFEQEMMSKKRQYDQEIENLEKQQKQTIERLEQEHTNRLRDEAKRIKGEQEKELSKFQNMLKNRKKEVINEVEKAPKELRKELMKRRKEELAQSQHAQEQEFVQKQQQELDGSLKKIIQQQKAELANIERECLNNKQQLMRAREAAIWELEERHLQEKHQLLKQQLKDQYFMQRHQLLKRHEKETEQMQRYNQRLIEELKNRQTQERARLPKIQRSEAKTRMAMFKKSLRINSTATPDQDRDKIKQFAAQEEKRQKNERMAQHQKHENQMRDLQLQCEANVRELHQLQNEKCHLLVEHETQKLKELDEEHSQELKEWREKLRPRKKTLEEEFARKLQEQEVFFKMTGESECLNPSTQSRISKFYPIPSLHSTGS
Assay [7] concerns the target Myosin light chain kinase, smooth muscle (Homo sapiens, UniProt Q15746).
In assay [8] the target is Mitogen-activated protein kinase kinase kinase 1 (Homo sapiens, UniProt Q13233).
Another assay concerns the target Ephrin type-A receptor 5 (Homo sapiens, UniProt P54756).
Assay [9] concerns the target NADH dehydrogenase [ubiquinone] 1 alpha subcomplex subunit 13 (Homo sapiens, UniProt Q9P0J0).
The target in assay [10] is BMP-2-inducible protein kinase (Homo sapiens, UniProt Q9NSY1).
The target in assay [11] is Dual specificity mitogen-activated protein kinase kinase 2 (Homo sapiens, UniProt P36507).
For assay [12], the target named is Cyclin-dependent kinase 5 (Homo sapiens, UniProt Q00535).
Chain of Cyclin-dependent kinase 5 (Q00535 whole entry): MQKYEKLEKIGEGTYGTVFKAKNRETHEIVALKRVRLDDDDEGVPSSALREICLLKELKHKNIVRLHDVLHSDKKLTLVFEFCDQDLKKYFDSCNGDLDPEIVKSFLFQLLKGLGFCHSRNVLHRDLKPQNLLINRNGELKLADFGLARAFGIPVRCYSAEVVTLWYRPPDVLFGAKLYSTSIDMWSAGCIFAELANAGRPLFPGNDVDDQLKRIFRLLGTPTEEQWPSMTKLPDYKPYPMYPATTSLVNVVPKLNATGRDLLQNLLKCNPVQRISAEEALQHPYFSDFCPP
A further assay concerns the target Insulin receptor (Homo sapiens, UniProt P06213).
Also: in the data inactive means no Kd found up to 30 µM.

Chain of Myosin light chain kinase, smooth muscle (Q15746 whole entry): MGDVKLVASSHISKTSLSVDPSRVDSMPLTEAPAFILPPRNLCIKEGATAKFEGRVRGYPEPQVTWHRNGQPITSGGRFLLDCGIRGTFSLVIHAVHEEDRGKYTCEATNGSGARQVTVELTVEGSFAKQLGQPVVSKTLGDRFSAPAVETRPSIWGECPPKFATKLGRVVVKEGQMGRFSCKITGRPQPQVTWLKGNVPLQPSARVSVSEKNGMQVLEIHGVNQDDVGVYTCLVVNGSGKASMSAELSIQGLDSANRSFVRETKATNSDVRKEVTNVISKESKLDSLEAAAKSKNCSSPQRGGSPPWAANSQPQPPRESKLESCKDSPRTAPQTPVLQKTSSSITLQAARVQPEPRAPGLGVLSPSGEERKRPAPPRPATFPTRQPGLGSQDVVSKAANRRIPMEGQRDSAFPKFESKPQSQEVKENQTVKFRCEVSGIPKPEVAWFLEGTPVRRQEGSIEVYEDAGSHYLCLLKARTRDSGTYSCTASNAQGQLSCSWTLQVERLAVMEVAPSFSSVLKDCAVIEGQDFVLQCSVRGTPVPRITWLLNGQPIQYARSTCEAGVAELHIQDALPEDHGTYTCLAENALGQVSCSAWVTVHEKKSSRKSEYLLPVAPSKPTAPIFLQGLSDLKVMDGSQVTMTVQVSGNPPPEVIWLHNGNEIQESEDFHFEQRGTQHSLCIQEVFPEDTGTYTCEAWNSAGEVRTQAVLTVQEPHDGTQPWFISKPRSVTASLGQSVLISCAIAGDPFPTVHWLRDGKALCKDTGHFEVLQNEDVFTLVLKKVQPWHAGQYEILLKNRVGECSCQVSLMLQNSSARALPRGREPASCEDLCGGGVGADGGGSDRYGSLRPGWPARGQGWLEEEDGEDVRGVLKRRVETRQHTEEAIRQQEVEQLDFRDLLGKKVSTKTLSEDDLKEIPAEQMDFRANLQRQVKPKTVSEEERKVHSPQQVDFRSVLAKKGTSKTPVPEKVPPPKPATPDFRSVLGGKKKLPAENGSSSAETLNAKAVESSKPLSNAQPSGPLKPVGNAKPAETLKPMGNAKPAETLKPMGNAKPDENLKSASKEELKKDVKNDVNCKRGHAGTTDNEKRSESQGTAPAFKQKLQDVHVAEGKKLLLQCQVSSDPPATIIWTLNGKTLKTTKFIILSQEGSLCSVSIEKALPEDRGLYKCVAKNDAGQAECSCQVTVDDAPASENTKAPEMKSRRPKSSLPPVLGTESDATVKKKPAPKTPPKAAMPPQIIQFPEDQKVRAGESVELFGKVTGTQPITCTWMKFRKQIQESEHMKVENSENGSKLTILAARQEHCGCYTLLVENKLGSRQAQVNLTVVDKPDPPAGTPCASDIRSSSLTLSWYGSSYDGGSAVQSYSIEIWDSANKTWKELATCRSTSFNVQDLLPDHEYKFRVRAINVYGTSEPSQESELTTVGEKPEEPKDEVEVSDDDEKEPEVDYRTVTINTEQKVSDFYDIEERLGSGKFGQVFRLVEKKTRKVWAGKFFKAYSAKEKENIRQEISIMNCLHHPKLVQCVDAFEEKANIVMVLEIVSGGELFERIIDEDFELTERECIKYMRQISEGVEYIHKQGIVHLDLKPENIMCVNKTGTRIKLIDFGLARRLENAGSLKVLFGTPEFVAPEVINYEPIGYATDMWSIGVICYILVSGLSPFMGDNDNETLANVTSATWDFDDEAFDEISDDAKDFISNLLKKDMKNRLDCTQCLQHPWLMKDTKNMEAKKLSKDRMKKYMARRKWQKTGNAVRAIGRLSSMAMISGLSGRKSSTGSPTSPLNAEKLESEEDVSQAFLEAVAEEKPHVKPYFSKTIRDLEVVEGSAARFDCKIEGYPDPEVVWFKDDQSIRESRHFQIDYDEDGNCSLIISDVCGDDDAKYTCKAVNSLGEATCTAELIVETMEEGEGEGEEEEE
Chain of NADH dehydrogenase [ubiquinone] 1 alpha subcomplex subunit 13 (Q9P0J0 whole entry, one chain of several): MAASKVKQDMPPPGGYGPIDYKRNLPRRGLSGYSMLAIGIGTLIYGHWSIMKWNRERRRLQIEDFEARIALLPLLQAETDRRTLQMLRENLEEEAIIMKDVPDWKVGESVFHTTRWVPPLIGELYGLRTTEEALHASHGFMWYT

On to `CO[C@H]1C[C@@H]2CC[C@@H](C)[C@@](O)(O2)C(=O)C(=O)N2CCCC[C@H]2C(=O)O[C@H]([C@H](C)C[C@@H]2CC[C@@H](OCCO)[C@H](OC)C2)CC(=O)[C@H](C)/C=C(\C)[C@@H](O)[C@@H](OC)C(=O)[C@H](C)C[C@H](C)/C=C/C=C/C=C/1C` [EVEROLIMUS], for which the Kd in assay [1], in assay [2], in assay [3], in [4], in [5] and in assay [6] was > 30 µM (inactive) each time. Besides, the Kd (in assay [7]; in assay [8]; at Ephrin type-A receptor 5; in [9]; in assay [10]; in [11]) was > 30 µM (inactive) each time. Moreover, the Kd (in [12]; at Insulin receptor) was > 30 µM (inactive) in each case.

In the case of `CCCS(=O)(=O)Nc1ccc(F)c(C(=O)c2c[nH]c3ncc(-c4ccc(Cl)cc4)cc23)c1F` [VEMURAFENIB], the Kd in [1], in assay [2], in [3], in assay [4], in assay [5] and in assay [6] was > 30 µM (inactive) each time. Further, the Kd (in assay [7]; in assay [8]; on Ephrin type-A receptor 5; in assay [9]; in [10]; in [11]) was > 30 µM (inactive) each time. The Kd (in assay [12]; at Insulin receptor) was > 30 µM (inactive) throughout.

As for `O=C(Nc1ccc(-c2ccnc(Nc3ccc(N4CCOCC4)cc3)n2)cc1)C1CCCN1` (stereo not given) [XL-019], the Kd in assay [1], in assay [2], in assay [3], in assay [4], in [5] and in assay [6] was > 30 µM (inactive) in each case. For the same molecule, the Kd in assay [7] is > 30 µM (inactive); in [8] it was > 30 µM (inactive); at Ephrin type-A receptor 5 it was > 30 µM (inactive); in assay [9], > 30 µM (inactive); in assay [10], 0.02 µM (active); in [11], > 30 µM (inactive). For the same molecule, the Kd (in [12]; on Insulin receptor) was > 30 µM (inactive) in each case.

For the molecule `CNC(=O)CN1CCC(Oc2cc3c(Nc4cccc(Cl)c4F)ncnc3cc2OC)CC1` [SAPITINIB], the Kd in assay [1], in assay [2], in assay [3], in [4], in assay [5] and in assay [6] was > 30 µM (inactive) throughout. The Kd is > 30 µM (inactive) in assay [7]; > 30 µM (inactive) in assay [8]; 0.835 µM (active) on Ephrin type-A receptor 5; > 30 µM (inactive) in assay [9]; > 30 µM (inactive) in [10]; > 30 µM (inactive) in [11]. In addition, the Kd (in [12]; at Insulin receptor) was > 30 µM (inactive) in each case.

`COC(=O)N[C@@H](C)CNc1nccc(-c2cn(C(C)C)nc2-c2cc(Cl)cc(NS(C)(=O)=O)c2F)n1` [ENCORAFENIB]: the Kd in assay [1], in assay [2], in assay [3], in assay [4], in assay [5] and in assay [6] was > 30 µM (inactive) in each case. Also, the Kd (in [7]; in [8]; on Ephrin type-A receptor 5; in assay [9]; in assay [10]; in assay [11]) was > 30 µM (inactive) each time. The Kd (in assay [12]; at Insulin receptor) was > 30 µM (inactive) throughout.

Consider `COc1ccc(-c2ccc3c(N4CCOC[C@@H]4C)nc(N4CCOC[C@@H]4C)nc3n2)cc1CO` [AZD-8055], for which the Kd in assay [1], in assay [2], in assay [3], in assay [4], in assay [5] and in assay [6] was > 30 µM (inactive) each time. For the same molecule, the Kd (in assay [7]; in [8]; at Ephrin type-A receptor 5; in assay [9]; in [10]; in assay [11]) was > 30 µM (inactive) each time. The Kd (in assay [12]; on Insulin receptor) was > 30 µM (inactive) in each case.

On to `O=C(O)[C@]1(Cc2cccc(Nc3nccs3)n2)CC[C@@H](Oc2cccc(Cl)c2F)CC1` [MK-5108], for which the Kd in assay [1] is > 30 µM (inactive); in assay [2], > 30 µM (inactive); in assay [3], > 30 µM (inactive); in assay [4], > 30 µM (inactive); in assay [5], 0.062 µM (active); in assay [6] it was > 30 µM (inactive). Moreover, the Kd (in assay [7]; in assay [8]; on Ephrin type-A receptor 5; in [9]; in assay [10]; in [11]) was > 30 µM (inactive) throughout. In addition, the Kd (in assay [12]; at Insulin receptor) was > 30 µM (inactive) each time.

With `O=C1NC(=O)/C(=C/c2ccc3nccc(-c4ccncc4)c3c2)S1` [GSK-1059615], the Kd in assay [1] was > 30 µM (inactive); in [2], > 30 µM (inactive); in assay [3], > 30 µM (inactive); in [4], > 30 µM (inactive); in [5], > 30 µM (inactive); in assay [6], 4.32 µM (active). The Kd in assay [7] is > 30 µM (inactive); in [8], > 30 µM (inactive); on Ephrin type-A receptor 5, > 30 µM (inactive); in [9], > 30 µM (inactive); in [10] it was 0.402 µM (active); in assay [11], 5.25 µM (active). The Kd (in assay [12]; at Insulin receptor) was > 30 µM (inactive) each time.

`Cc1c(F)cc(C(=O)NC2CC2)cc1-c1ccc(C(=O)NCC(C)(C)C)cn1` [LOSMAPIMOD]: the Kd in assay [1], in [2], in assay [3], in [4], in assay [5] and in [6] was > 30 µM (inactive) each time. Also, the Kd (in [7]; in assay [8]; at Ephrin type-A receptor 5; in assay [9]; in assay [10]; in assay [11]) was > 30 µM (inactive) throughout. Moreover, the Kd (in assay [12]; on Insulin receptor) was > 30 µM (inactive) each time.

Take `COc1cc(CCc2cc(NC(=O)c3ccc(N4C[C@@H](C)N[C@@H](C)C4)cc3)n[nH]2)cc(OC)c1` [AZD-4547]: the Kd in assay [1], in assay [2], in assay [3], in assay [4], in assay [5] and in [6] was > 30 µM (inactive) throughout. For the same molecule, the Kd (in assay [7]; in [8]; on Ephrin type-A receptor 5; in [9]; in [10]; in assay [11]) was > 30 µM (inactive) each time. Also, the Kd (in assay [12]; on Insulin receptor) was > 30 µM (inactive) throughout.

These data come from ChEMBL document CHEMBL3991601, “The target landscape of clinical kinase drugs” (Science, 2017).
